According to patent EP3246445A1, “LIPOXIN A4 DELIVERY SYSTEM BY A POROUS ELECTROSPUN POLYMERIC MEMBRANE” (Universita' Degli Studi G. D Annunzio Chieti - Pescara, priority 2016, dated 2017):

Columns and labels:
[1] = Release of LXA4 from PEO/PDLLA membranes in PBS, RP-HPLC; type: physicochemical
Experimental: The release of LXA4 from the membrane was evaluated using phosphate-buffered saline solution (PBS) (pH 7.4, at 37°C). Pieces (3 cm x 2.5 cm, ∼33 mg, sample) of membranes, empty or LXA4-loaded, were placed in 100 mm dishes containing PBS (8 mL) and maintained at 37 °C, 5% CO2 and 95% humidity for 1, 3, 18, 48, 72 and 96 h. LXA4 release was assessed by HPLC analysis after solid phase extraction. Following incubation with PBS, membranes were diluted with 2 volumes of cold MeOH and stored at -80°C until extraction. All samples were extracted using C-18 cartridges (Bond Elut Varian, Agilent Technologies, Milan) as previously described (Romano M, Luciotti G, Gangemi S, Marinucci F, Prontera C, D'Urbano E, et al. Urinary excretion of lipoxin A(4) and related compounds: development of new extraction techniques for lipoxins. Laboratory investigation; a journal of technical methods and pathology. 2002;82(9):1253-4). Before extraction, PGB2 (50 ng/sample) was added to each sample as internal standard to calculate extraction recovery. Samples were then taken to dryness using a rotary evaporator, suspended in 10 mL of deionized (dd) H2O containing MeOH, acidified to pH 3.5 and rapidly loaded onto C-18 columns previously equilibrated with MeOH and (dd) H2O. After sample loading, columns were washed with (dd) H2O to restore a neutral pH. Samples were eluted with 7 mL of methyl formate and taken to dryness using a Speedvac apparatus. The dried samples were then suspended in MeOH (100 µl) and injected into an HPLC apparatus (Agilent 1100) equipped reverse phase-HPLC with a Hypersil C-18 column (300 mm x 4 mm x 5 µm, Waters) and a photodiode array detector (Waters) for online UV spectroscopy. LXA4 was identified by UV spectroscopy and considering the chromatographic retention time.
LXA4 releasing from the PEO/PDLLA membranes was investigated by incubating membranes with a PBS solution at pH 7.4 for varying times. LXA4 was quantitated by RP-HPLC. […] The maximum release was observed after 48 h (17%), followed by a progressive decrement at 72 h and 96 h (around 11%). Approximately 25% of LXA4 was recovered as trans isomer, in line with the content of Romano M, Serhan CN. Lipoxin generation by permeabilized human platelets. Biochemistry.

hPDLSCs = assay: Proliferation assay with LXA4 released from PEO/PDLLA membrane; type: cell-based, Human; conditions: LXA4 eluted from PEO/PDLLA membranes in PBS
Experimental: Bioptic samples of periodontal ligament were obtained from volunteers aged 20-35 years, exempt from systemic or oral disease, after undesigning the informed consent deed. The study was approved by the Medical Ethic Committee of the "G. D'Annunzio" University, Chieti, Italy (n°266/17.04.14). The periodontal tissue obtained by bioptic samples, grinded and washed several times with PBS (Lonza, Basel, Switzerland) was cultured using TheraPEAK™MSCGM-CD™ BulletKit serum free (MSCGM-CD) medium for the growth of human mesamchimal steam cells (MSCGM-CD) (Lonza), to minimize the exposure to substances of non-human origin. Human periodontal ligament stem cells (hPDLSCs) were obtained and cultured as reported in Trubiani O, Piattelli A, Gatta V, Marchisio M, Diomede F, D'Aurora M, et al. Assessment of an efficient xeno-free culture system of human periodontal ligament stem cells. […]
For the proliferation assay with LXA4 released from PEO/PDLLA membrane, hPDLSCs (2 x 10^3 cells/well) were seeded in 96-well microplates with complete medium overnight at 37 °C and 5%CO2. […] Data were expressed as proliferation index, calculated as the ratio between values from cells exposed to membrane-eluted LXA4 and from cells exposed to vehicle only (ethanol) of LXA4. […]
The proliferation and migration of hPDLSC growth a direct contact with fragment of LXA4-loaded membrane were evaluated. […]

CCCCC[C@H](O)/C=C/C=C\C=C\C=C\[C@@H](O)[C@@H](O)CCCC(=O)O [LXA4, Lipoxin A4]
LXA4 released ([1]; PBS pH 7.4, 37 °C, 72 h): around 11% | LXA4 released ([1]; PBS pH 7.4, 37 °C, 96 h): around 11% | LXA4 released, maximum release ([1]; PBS pH 7.4, 37 °C, after 48 h): 17% | LXA4 released, of the total LXA4 added to membranes ([1]; PBS pH 7.4, 37 °C, within 3 h): approximately 15% | LXA4 recovered as trans isomer ([1]; of the total LXA4 eluted from the membranes): Approximately 25% | biological activities on hPDLSCs after release (hPDLSCs): retained its biological activities on hPDLSCs
